Assay results: patent publication US5622962A, “5α-reductase inhibitors” (priority 1995, dated 1997)

Key:
[1] = molecular target: T1, Type II 5α-Reductase from Human Prostate (Homo sapiens, UniProt P31213); assay: Human Type II 5α-reductase assay (conversion of [3H]-testosterone to 5α-reduced metabolites); type: biochemical; conditions: sodium acetate pH 5.5, 25°, 30 min, compared to control reaction mixtures; for inhibition at 0.3 µM: pH 5.5, 0.3 μM, read-out: percent inhibition of Type II AR; for percent inhibition of Type II AR: 0.3 μM
T1 construct: The same procedure as above was used for preparations using tissue from prostate surgery; from tissue; host or cells: human prostate tissue from surgery, homogenate, 100,000×g pellet
T1 sequence (P31213 1-254): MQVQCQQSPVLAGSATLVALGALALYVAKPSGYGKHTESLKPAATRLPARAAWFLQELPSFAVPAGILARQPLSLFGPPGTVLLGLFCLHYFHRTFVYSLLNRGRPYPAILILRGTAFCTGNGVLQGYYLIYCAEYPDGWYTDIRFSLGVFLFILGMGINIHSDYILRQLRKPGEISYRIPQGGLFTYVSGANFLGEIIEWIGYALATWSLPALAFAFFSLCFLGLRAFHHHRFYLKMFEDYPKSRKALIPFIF

[2] = molecular target: T2, Type I 5α-Reductase from Human Scalp (Homo sapiens, UniProt P18405); assay: Human Type I 5α-reductase assay (conversion of [3H]-testosterone to 5α-reduced metabolites); type: biochemical; conditions: 50 nM [3H]-testosterone, pH 7.5, 25°, 180 min, compared to control reaction mixtures; for inhibition at 0.3 µM: pH 7.5, 0.3 μM, read-out: percent inhibition of Type I AR
T2 construct: Scalp punch biopsies from graft recipient sites were obtained from human hair transplant procedures; from tissue; host or cells: human scalp punch biopsies (hair transplant graft recipient sites), homogenate, 100,000×g pellet
T2 sequence (P18405 1-259): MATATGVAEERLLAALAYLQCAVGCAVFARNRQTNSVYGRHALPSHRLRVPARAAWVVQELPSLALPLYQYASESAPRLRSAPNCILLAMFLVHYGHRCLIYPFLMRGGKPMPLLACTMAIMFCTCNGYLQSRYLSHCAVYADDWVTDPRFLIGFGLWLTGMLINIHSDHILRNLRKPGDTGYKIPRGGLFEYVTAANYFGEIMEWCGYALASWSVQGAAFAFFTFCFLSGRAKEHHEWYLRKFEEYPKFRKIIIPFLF

inhibition at 0.3 µM [1] [%]	inhibition at 0.3 µM [2] [%]	percent inhibition of Type II AR [1] [%]	percent inhibition of Type I AR ([2]; 0.3 μM) [%]	Compound
31	73			CSc1cccc(-c2ccc3c(c2)CC[C@H]2N(C)C(=O)CC[C@]32C)c1 [Example 212, (+)-(4aR)-(10bR)-4-methyl-8-(3-methylthiophenyl)-10b-methyl-1,2,3,4,4a,5,6,10b-octahydrobenzo[f]quinolin-3-one]
72	59	64		CN1C(=O)CC[C@]2(C)c3ccc(-c4cncc5ccccc45)cc3CC[C@@H]12 [Example 200, (+)-(4aR)-(10bR)-4-methyl-8-(4-isoquinolinyl)-10b-methyl-1,2,3,4,4a,5,6,10b-octahydrobenzo [f]quinolin-3-one]
24	69			CN1C(=O)CC[C@]2(C)c3ccc(-c4ccc5ncsc5c4)cc3CC[C@@H]12 [Example 249, (+)-(4aR)-(10bR)-4-methyl-8-(6-benzothiazolyl)-10b-methyl-1,2,3,4,4a,5,6,10b-octahydrobenzo[f]quinolin-3-one]
22				CN1C(=O)CC[C@]2(C)c3ccc(-c4cccc(N)c4)cc3CC[C@@H]12 [Example 90, (+)-(4aR)-(10bR)-4-methyl-8-(3-aminophenyl)-10b-methyl-1,2,3,4,4a,5,6,10b-octahydrobenzo[f]quinolin-3-one]
22				CN1C(=O)CC[C@]2(C)c3ccc(-c4cccnc4)cc3CC[C@@H]12 [Example 54, (+)-(4aR)-(10bR)-4-methyl-8-(3-pyridyl)-10b-methyl-1,2,3,4,4a,5,6,10b-octahydrobenzo[f]quinolin-3-one]
12				CN1C(=O)CC[C@]2(C)c3ccc(-c4ccc(F)cc4)cc3CC[C@@H]12 [Example 85, (+)-(4aR)-(10bR)-4-methyl-8-(4-fluorophenyl)-10b-methyl-1,2,3,4,4a,5,6,10b-octahydrobenzo[f]quinolin-3-one]
	92			CN1C(=O)CC[C@]2(C)c3ccc(-c4ccc(F)c(F)c4)cc3CC[C@@H]12 [Example 27, (+)-(4aR)-(10bR)-4-methyl-8-(3,4-difluorophenyl)-10b-methyl-1,2,3,4,4a,5,6,10b-octahydrobenzo[f]quinolin-3-one]
	84			CN1C(=O)CC[C@]2(C)c3ccc(-c4ccc([N+](=O)[O-])cc4)cc3CC[C@@H]12 [Example 119, (+)-(4aR)-(10bR)-4-methyl-8-(4-nitrophenyl)-10b-methyl-1,2,3,4,4a,5,6,10b-octahydrobenzo[f]quinolin-3-one]

Second part, the molecule before the results:

Compound	inhibition at 0.3 µM [1] [%]	inhibition at 0.3 µM [2] [%]	percent inhibition of Type II AR [1] [%]	percent inhibition of Type I AR ([2]; 0.3 μM) [%]
CN1C(=O)C=C[C@]2(C)c3ccc(-c4cccc5ccccc45)cc3CC[C@@H]12 [Example 117, (+)-(4aR)-(10bR)-4-methyl-8-(1-naphthyl)-10b-methyl-3,4,4a,5,6,10b-hexahydrobenzo[f]quinolin-3-one]	49	46		
CN1C(=O)CC[C@]2(C)c3ccc(-c4cccc(NC(c5ccccc5)c5ccccc5)c4)cc3CC[C@@H]12 [Example 272, (+)-(4aR)-(10bR)-4-methyl-8-(3-diphenylmethylaminophenyl)-10b-methyl-1,2,3,4,4a,5,6,10b-octahydrobenzo[f]quinolin-3-one]	11	86		
CN1C(=O)CC[C@]2(C)c3ccc(-c4c(F)cccc4F)cc3CC[C@@H]12 [Example 228, (+)-(4aR)-(10bR)-4-methyl-8-(2,6-difluorophenyl)-10b-methyl-1,2,3,4,4a,5,6,10b-octahydrobenzo[f]quinolin-3-one]	32	77		
CN1C(=O)CC[C@]2(C)c3ccc(SCc4cc5ccccc5cn4)cc3CC[C@@H]12 [Example 191, (+)-(4aR)-(10bR)-8-(3-isoquinolinylmethylthio)-4,10b-dimethyl-1,2,3,4,4a,5,6,10b-octahydrobenzo[f]quinoline-3-one]	19	65	28	
Cc1cccc(-c2ccc3c(c2)CC[C@H]2N(C)C(=O)CC[C@]32C)c1C [Example 69, (+)-(4aR)-(10bR)-4-methyl-8-(2,3-dimethylphenyl)-10b-methyl-1,2,3,4,4a,5,6,10b-octahydrobenzo[f]quinolin-3-one]	6	84		
CN1C(=O)CC[C@]2(C)c3ccc(-c4ccc(NC(=O)C(C)(C)C)cc4)cc3CC[C@@H]12 [Example 37, (+)-(4aR)-(10bR)-4-methyl-8-(4-t-butylcarbonylaminophenyl)-10b-methyl-1,2,3,4,4a,5,6,10b-octahydrobenzo[f]quinolin-3-one]	58	72		
CN1C(=O)CC[C@]2(C)c3ccc(Sc4ccccc4F)cc3CC[C@@H]12 [Example 108, (+)-(4aR)-(10bR)-4,10b-dimethyl-8-(2-fluorophenylthio)-1,2,3,4,-4a,5,6,10b-octahydrobenzo[f]quinolin-3-one]	29	100		
CN1C(=O)CC[C@]2(C)c3ccc(Sc4ccc5cc([N+](=O)[O-])ccc5n4)cc3CC[C@@H]12 [Example 168, (+)-(4aR)-(10bR)-4-methyl-8-(6-nitro-2-quinolinylthio)-10b-methyl-1,2,3,4,4a,5,6,10b-octahydrobenzo[f]quinolin-3-one]	41	85		
CN1C(=O)CC[C@]2(C)c3ccc(C(=O)Oc4ccccc4)cc3CC[C@@H]12 [Example 145, (+)-(4aR)-(10bR)-4-methyl-8-phenoxycarbonyl-10b-methyl-1 2,3,4,4a,5,6,10b-octahydrobenzo[f]quinolin-3-one]	41	85		
CN1C(=O)CC[C@]2(C)c3ccc(NC(=O)c4ccccc4)cc3CC[C@@H]12 [Example 267, (+)-(4aR)-(10bR)-4,10b-dimethyl-8-benzoylamino-1,2,3,4,4a,-5,6,10b-octahydrobenzo[f]quinolin-3-one]	51	34		
COc1ccc(Sc2ccc3c(c2)CC[C@H]2N(C)C(=O)CC[C@]32C)cc1 [Example 105, (+)-(4aR)-(10bR)-4,10b-dimethyl-8-(4-methoxyphenylthio)-1,2,3,4,-4a,5,6,10b-octahydrobenzo[f]quinolin-3-one]	33	92		
CN1C(=O)CC[C@]2(C)c3ccc(Sc4ccc(C(F)(F)F)cn4)cc3CC[C@@H]12 [Example 155, (+)-(4aR)-(10bR)-4-methyl-8-(2-[5-trifluoromethyl]pyridylthio)-10b-methyl-1,2,3,4,4a,5,6,10b-octahydrobenzo[f]-quinolin-3-one]	60	58		
CN1C(=O)CC[C@]2(C)c3ccc(Sc4ccccc4Cl)cc3CC[C@@H]12 [Example 99, (+)-(4aR)-(10bR)-4,10b-dimethyl-8-(2-chlorophenylthio)-1,2,3,4,-4a,5,6,10b-octahydrobenzo[f]quinolin-3-one]		88		
COc1cccc(Sc2ccc3c(c2)CC[C@H]2NC(=O)CC[C@]32C)c1 [Example 15, (4aR)-(10bR)-8-(3-methoxyphenylthio)-10b-methyl-1,2,3,4,4a,5,6,10b-octahydrobenzo[f]quinolin-3-one]	39	23		
C[C@]12CCC(=O)N[C@@H]1CCc1cc(-c3cnc4ccccc4c3)ccc12 [Example 196, (+)-(4aR)-(10bR)-8-(3-quinolinyl)-10b-methyl-1,2,3,4,4a,-5,6,10b-octahydrobenzo[f]quinolin-3-one]				11
CN1C(=O)CC[C@]2(C)c3ccc(-c4cccc(F)c4F)cc3CC[C@@H]12 [Example 26, (+)-(4aR)-(10bR)-4-methyl-8-(2,3-difluorophenyl)-10b-methyl-1,2,3,4,4a,5,6,10b-octahydrobenzo[f]quinolin-3-one]		86		
C[C@]12CCC(=O)N[C@@H]1CCc1cc(-c3cccc([N+](=O)[O-])c3)ccc12 [Example 93, (+)-(4aR)-(10bR)-8-(3-nitrophenyl)-10b-methyl-1,2,3,4,4a,5,6,10b-octahydrobenzo[f]quinolin-3-one]	9			
CN1C(=O)CC[C@]2(C)c3ccc(NC(=O)c4ccc(N)cc4)cc3CC[C@@H]12 [Example 271, (4aR)-(10bR)-4,10b-dimethyl-8-(4-aminobenzoylamino)-1,2,3,4,4a,5,6,10b-octahydrobenzo[f]quinolin-3-one]	36			
CN1C(=O)CC[C@]2(C)c3ccc(/C=C/c4ccc5ccccc5n4)cc3CC[C@@H]12 [Example 283, (4aR)-(10bR)-4,10b-dimethyl-8-(2-[2-quinolinyl]ethenyl)-1,2,3,4,4a,5,6,10b-octahydrobenzo[f]quinolin-3-one]	37			
